These results are taken from patent US10174024B2, “5H-pyrido[3,2-B]indole compounds as anticancer agents” (BRISTOL-MYERS SQUIBB COMPANY, priority 2015, dated 2019).

The test addresses BRD4 (Homo sapiens, UniProt O60885). Kind of test: Time Resolved Fluorescence Resonance Energy Transfer (TR-FRET) binding assay, FRET BRD4. The following applies: one of the FRET assays described (BRD4 bromodomain construct not specified); read-out: FRET BRD4 IC50. (In general: In TR-FRET formats the signal depends on donor and acceptor labels being close together.)

Molecules are shown by their SMILES.

The term IC50 denotes the concentration that inhibits the measured activity by half.

`[2H]C([2H])([2H])c1nnn(C)c1-c1cnc2c3ccc(N4CCC(S(C)(=O)=O)CC4)cc3n(C(c3ncccc3F)C3CCOCC3)c2c1` (centres unmarked) [Example 70, 3-Fluoro-2-{[7-(4-methanesulfonylpiperidin-1-yl)-3-[4-(^2H3)methyl-1-methyl-1H-1,2,3-triazol-5-yl]-5H-pyrido[3,2-b]indol-5-yl](oxan-4-yl)methyl}pyridine]: the IC50 is less than 1 nM.

As to `Cc1nnn(C)c1-c1cnc2c3ccc(N4CCC(F)(F)CC4)cc3n([C@H](c3ccccc3)C3CCOCC3)c2c1` [Example 71, 1-[3-(Dimethyl-1H-1,2,3-triazol-5-yl)-5-[(S)-oxan-4-yl(phenyl)methyl]-5H-pyrido[3,2-b]indol-7-yl]-4,4-difluoropiperidine], the half-inhibitory concentration (IC50) is less than 1 nM.

In the case of `Cc1nnn(C)c1-c1cnc2c3ccc(N4CCC(C(F)(F)F)CC4)cc3n([C@H](c3ccccc3)C3CCOCC3)c2c1` [Example 72, 1-[3-(Dimethyl-1H-1,2,3-triazol-5-yl)-5-[(S)-oxan-4-yl(phenyl)methyl]-5H-pyrido[3,2-b]indol-7-yl]-4-(trifluoromethyl)piperidine], the half-inhibitory concentration (IC50) is less than 1 nM.

As for `[2H]C([2H])([2H])c1nnn(C)c1-c1cnc2c3c(N4CCC(F)(F)CC4)ccc(S(C)(=O)=O)c3n(C(c3ccccc3)C3CCC(F)(F)CC3)c2c1` (centres unmarked) [Example 73, 1-{5-[(4,4-Difluorocyclohexyl)(phenyl)methyl]-6-methanesulfonyl-3-[4-(^2H3)methyl-1-methyl-1H-1,2,3-triazol-5-yl]-5H-pyrido[3,2-b]indol-9-yl}-4,4-difluoropiperidine], the IC50 is less than 1500 nM.

On to `[2H]C([2H])([2H])c1nnn(C)c1-c1cnc2c3c(N4CCC(F)(F)CC4)ccc(S(C)(=O)=O)c3n(C(c3ccccc3)C3CCC(F)(F)CC3)c2c1` (centres unmarked) [Example 74, 1-{5-[(4,4-Difluorocyclohexyl)(phenyl)methyl]-6-methanesulfonyl-3-[4-(^2H3)methyl-1-methyl-1H-1,2,3-triazol-5-yl]-5H-pyrido[3,2-b]indol-9-yl}-4,4-difluoropiperidine], for which the IC50 was less than 1500 nM.
